From PubChem BioAssay AID1259407 (Chemical Carcinogenesis Research Information System (CCRIS), 2018)
The source made the active and inactive calls. How the calls were made is not given here.

Test system: CCRIS mutagenicity, Ames/micronucleus/aberration tests
Experiment: CCRIS mutagenicity studies

Measured: mutagenic call

S=C(NC1CCCCC1)NC1CCCCC1
inactive: Test System: AMES SALMONELLA TYPHIMURIUM, Strain/Indicator: TA97, Metabolic Activation: HAMSTER, LIVER, S-9, AROCLOR 1254 (10 OR 30%), Method: PREINCUBATION inactive; negative | Test System: AMES SALMONELLA TYPHIMURIUM, Strain/Indicator: TA97, Metabolic Activation: NONE, Method: PREINCUBATION inactive; negative | Test System: AMES SALMONELLA TYPHIMURIUM, Strain/Indicator: TA97, Metabolic Activation: RAT, LIVER, S-9, AROCLOR 1254 (10%), Method: PREINCUBATION inactive; negative | Test System: AMES SALMONELLA TYPHIMURIUM, Strain/Indicator: TA97, Metabolic Activation: RAT, LIVER, S-9, AROCLOR 1254 (30%), Method: PREINCUBATION inactive; negative | Test System: AMES SALMONELLA TYPHIMURIUM, Strain/Indicator: TA98, Metabolic Activation: HAMSTER, LIVER, S-9, AROCLOR 1254 (10 OR 30%), Method: PREINCUBATION inactive; negative | Test System: AMES SALMONELLA TYPHIMURIUM, Strain/Indicator: TA98, Metabolic Activation: NONE, Method: PREINCUBATION inactive; negative | Test System: AMES SALMONELLA TYPHIMURIUM, Strain/Indicator: TA98, Metabolic Activation: RAT, LIVER, S-9, AROCLOR 1254 (10 OR 30%), Method: PREINCUBATION inactive; negative | Test System: AMES SALMONELLA TYPHIMURIUM, Strain/Indicator: TA100, Metabolic Activation: HAMSTER, LIVER, S-9, AROCLOR 1254 (10 OR 30%), Method: PREINCUBATION inactive; negative | Test System: AMES SALMONELLA TYPHIMURIUM, Strain/Indicator: TA100, Metabolic Activation: NONE, Method: PREINCUBATION inactive; negative | Test System: AMES SALMONELLA TYPHIMURIUM, Strain/Indicator: TA100, Metabolic Activation: RAT, LIVER, S-9, AROCLOR 1254 (10 OR 30%), Method: PREINCUBATION inactive; negative | Test System: AMES SALMONELLA TYPHIMURIUM, Strain/Indicator: TA1535, Metabolic Activation: HAMSTER, LIVER, S-9, AROCLOR 1254 (10 OR 30%), Method: PREINCUBATION inactive; negative | Test System: AMES SALMONELLA TYPHIMURIUM, Strain/Indicator: TA1535, Metabolic Activation: NONE, Method: PREINCUBATION inactive; negative | Test System: AMES SALMONELLA TYPHIMURIUM, Strain/Indicator: TA1535, Metabolic Activation: RAT, LIVER, S-9, AROCLOR 1254 (10 OR 30%), Method: PREINCUBATION inactive; negative | Test System: AMES SALMONELLA TYPHIMURIUM, Strain/Indicator: TA1537, Metabolic Activation: HAMSTER, LIVER, S-9, AROCLOR 1254 (10%), Method: PREINCUBATION inactive; negative | Test System: E. COLI, Strain/Indicator: WP2 UVRA, Metabolic Activation: HAMSTER, LIVER, S-9, AROCLOR 1254, Method: STANDARD PLATE inactive; negative | Test System: E. COLI, Strain/Indicator: WP2 UVRA, Metabolic Activation: HAMSTER, LIVER, S-9, Method: STANDARD PLATE inactive; negative | Test System: E. COLI, Strain/Indicator: WP2 UVRA, Metabolic Activation: MOUSE, LIVER, S-9, AROCLOR 1254, Method: STANDARD PLATE inactive; negative | Test System: E. COLI, Strain/Indicator: WP2 UVRA, Metabolic Activation: MOUSE, LIVER, S-9, Method: STANDARD PLATE inactive; negative | Test System: E. COLI, Strain/Indicator: WP2 UVRA, Metabolic Activation: NONE, Method: STANDARD PLATE inactive; negative | Test System: E. COLI, Strain/Indicator: WP2 UVRA, Metabolic Activation: RAT, LIVER, S-9, AROCLOR 1254, Method: STANDARD PLATE inactive; negative | Test System: E. COLI, Strain/Indicator: WP2 UVRA, Metabolic Activation: RAT, LIVER, S-9, Method: STANDARD PLATE inactive; negative | Test System: MOUSE LYMPHOMA, Strain/Indicator: L5178Y (TK+/TK-), Metabolic Activation: RAT, LIVER, S-9, AROCLOR 1254, Method: SUSPENSION/PLATE inactive; negative
